Test results published in the supplement of paper PMC10307832.

Experiments:
Test in all cases: relative viability (nuclei count vs DMSO), 5 days (fraction); higher = more cells survive
[1] = compound: CC1=C(C(=O)N2C=CSC2=N1)CCN3CCC(=C(C4=CC=CC=C4)C5=CC=C(C=C5)F)CC3 + CC(=O)c1c(C)c2cnc(Nc3ccc(N4CCNCC4)cn3)nc2n(C2CCCC2)c1=O [Palbociclib] (partner 0.5 µM)
In short: (§1)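 Relative viability is defined as nuclei in treated wells over nuclei in vehicle wells. Duplicate plates were run and medians reported. Lung cancer cell lines in 1536-well plates were dosed by pin tool one day after seeding, with one drug or with a fixed anchor-drug dose plus five library-drug doses (not always all listed) in √10 steps, and nuclei were counted after 5 days.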

[2] = compound: CC1=C(C(=O)N2C=CSC2=N1)CCN3CCC(=C(C4=CC=CC=C4)C5=CC=C(C=C5)F)CC3 + COc1cccc2cc(-c3nc([C@H]4CC[C@H](C(=O)O)CC4)n4ncnc(N)c34)[nH]c12 [OSI-027] (partner 0.5 µM)
In short: as §1

[3] = compound: CC1=C(C(=O)N2C=CSC2=N1)CCN3CCC(=C(C4=CC=CC=C4)C5=CC=C(C=C5)F)CC3 + CS(=O)(=O)N1CCN(Cc2cc3nc(-c4cccc5[nH]ncc45)nc(N4CCOCC4)c3s2)CC1 [Pictilisib] (partner 1 µM)
In short: as §1

[4] = compound: CC1=C(C(=O)N2C=CSC2=N1)CCN3CCC(=C(C4=CC=CC=C4)C5=CC=C(C=C5)F)CC3 + CCNC(=O)c1noc(-c2cc(C(C)C)c(O)cc2O)c1-c1ccc(CN2CCOCC2)cc1 [Luminespib] (partner 0.01 µM)
In short: as §1

Cell Line	relative viability ([1]; first compound 0.08 µM)	relative viability ([1]; first compound 0.253 µM)	relative viability ([1]; first compound 0.8 µM)	relative viability ([1]; first compound 2.53 µM)	relative viability ([1]; first compound 8 µM)	relative viability ([2]; first compound 0.08 µM)	relative viability ([2]; first compound 0.253 µM)	relative viability ([2]; first compound 0.8 µM)	relative viability ([2]; first compound 2.53 µM)	relative viability ([2]; first compound 8 µM)	relative viability ([3]; first compound 0.08 µM)	relative viability ([3]; first compound 0.253 µM)	relative viability ([3]; first compound 0.8 µM)	relative viability ([3]; first compound 2.53 µM)	relative viability ([3]; first compound 8 µM)	relative viability ([4]; first compound 0.08 µM)	relative viability ([4]; first compound 0.253 µM)	relative viability ([4]; first compound 0.8 µM)	relative viability ([4]; first compound 2.53 µM)	relative viability ([4]; first compound 8 µM)
LCLC-97TM1	0.255	0.217	0.284	0.283	0.205	0.585	0.585	0.507	0.487	0.369	0.208	0.297	0.217	0.182	0.167	0.709	0.831	0.789	0.938	0.514
ChaGo-K-1	0.919	0.92	0.989	1.05	0.649	0.595	0.636	0.533	0.584	0.489	0.976	0.593	0.476	0.937	0.604	0.462	0.648	0.644	0.514	0.444
NCI-H1792	0.353	0.663	0.649	0.564	0.271	0.596	0.643	0.789	0.566	0.485	0.241	0.257	0.251	0.232	0.308	0.354	0.444	0.585	0.379	0.349
NCI-H3122	0.178	0.213	0.192	0.164	0.157	0.916	1.02	1.11	1.07	0.596	0.72	0.678	0.574	0.768	0.623	0.0707	0.131	0.1	0.0895	0.0997
